Results on 16 compounds are retold here after patent publication US12685312B2, “Sulfonamide apyrase inhibitors” (Texas Crop Science, Inc., priority 2022, dated 2026).

The subject of this assay is apyrase. Nature of the assay: Screen for apyrase inhibitors (Method 1, in vitro phosphate-release absorbance assay). It is filed as biochemical. The conditions noted are these: inhibitor conc at 1 mM stock, 1 hr room temperature, absorbance 630 nm; rounded average of two assay results. In short, it runs like this: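 Phosphate-release colorimetric assay (Windsor method) in 60 mM Hepes, 3 mM MgCl2, 3 mM CaCl2, 3 mM ATP, pH 6.5, with compound or DMSO control added. Released phosphate developed with ammonium molybdate and ascorbic acid/TCA, then stopped with citrate/acetic acid.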
Take `O=C(c1cccc(S(=O)(=O)N2CCc3ccccc32)c1)N1CCCc2ccccc21` [I-498, (3,4-dihydroquinolin-1(2H)-yl)(3-(indolin-1-ylsulfonyl)phenyl)methanone]: the “% Inhibition of Apyrase” value came out at 57%.

Turning to `COc1ccc(NC(=O)c2cccc(S(=O)(=O)Nc3ccc4c(c3)OCO4)c2)cc1OC` [I-277, 3-(N-(benzo[d][1,3]dioxol-5-yl)sulfamoyl)-N-(3,4-dimethoxyphenyl)benzamide], the “% Inhibition of Apyrase” value is recorded as 44%.

`O=C(Nc1cccc(C(F)(F)F)c1)c1cccc(NS(=O)(=O)c2ccccc2F)c1` [I-326, 3-((2-fluorophenyl)sulfonamido)-N-(3-(trifluoromethyl)phenyl)benzamide]: the “% Inhibition of Apyrase” value turned out to be 13%.

As for `O=C(Nc1cccc(C(F)(F)F)c1)c1cccc(NS(=O)(=O)c2ccc(Br)c(C(=O)O)c2)c1` [I-322, 2-bromo-5-(N-(3-((3-(trifluoromethyl)phenyl)carbamoyl)phenyl)sulfamoyl)benzoic acid], the “% Inhibition of Apyrase” value was 47%.

With `COc1ccc(S(=O)(=O)N2CCc3ccccc32)cc1C(=O)Nc1ccc(Br)c(C)c1` [I-471, N-(4-bromo-3-methylphenyl)-5-(indolin-1-ylsulfonyl)-2-methoxybenzamide], the “% Inhibition of Apyrase” value amounted to 59%.

Consider `O=C(NCC(=O)N1CCCCC1)c1cccc(S(=O)(=O)Nc2ccc(Br)cc2)c1` [I-281, 3-(N-(4-bromophenyl)sulfamoyl)-N-(2-oxo-2-(piperidin-1-yl)ethyl)benzamide], for which the “% Inhibition of Apyrase” value was 39%.

As to `CN(c1ccccc1)S(=O)(=O)c1cccc(NC(=O)c2ccc(Br)s2)c1` [I-706, 5-bromo-N-(3-(N-methyl-N-phenylsulfamoyl)phenyl)thiophene-2-carboxamide], the “% Inhibition of Apyrase” value is 62%.

`Cc1ccc(C)c(S(=O)(=O)Nc2cccc(C(=O)Nc3ccc(F)cn3)c2)c1` [I-641, 3-((2,5-dimethylphenyl)sulfonamido)-N-(5-fluoropyridin-2-yl)benzamide]: the “% Inhibition of Apyrase” value is on record as 55%.

As to `O=C(Nc1ccc(N2CCOCC2)cc1)c1cccc(S(=O)(=O)N2CCc3ccccc32)c1` [I-601, 3-(indolin-1-ylsulfonyl)-N-(4-morpholinophenyl)benzamide], the “% Inhibition of Apyrase” value turned out to be 29%.

`O=C(Nc1cccc(S(=O)(=O)Nc2ccc(Cl)cc2)c1)c1ccc(=O)n(Cc2ccccc2)n1` [I-737, 1-benzyl-N-(3-(N-(4-chlorophenyl)sulfamoyl)phenyl)-6-oxo-1,6-dihydropyridazine-3-carboxamide]: the “% Inhibition of Apyrase” value was determined as 53%.

In the case of `COc1ccc2c(c1)CCCN2C(=O)c1ccc(S(=O)(=O)Nc2ccc(F)cc2)cc1` [I-858, N-(4-fluorophenyl)-4-(6-methoxy-1,2,3,4-tetrahydroquinoline-1-carbonyl)benzenesulfonamide], the “% Inhibition of Apyrase” value is recorded as 76%.

Regarding `COc1ccc(NC(=O)c2cccc(S(=O)(=O)N3CCc4ccccc43)c2)c(OC)c1` [I-575, N-(2,4-dimethoxyphenyl)-3-(indolin-1-ylsulfonyl)benzamide], the “% Inhibition of Apyrase” value was 49%.

Turning to `Cc1cc(C)cc(NC(=O)c2cccc(S(=O)(=O)Nc3ccc4c(c3)OCO4)c2)c1` [I-179, 3-(N-(benzo[d][1,3]dioxol-5-yl)sulfamoyl)-N-(3,5-dimethylphenyl)benzamide], the “% Inhibition of Apyrase” value is given as 72%.

Consider `O=C(Nc1cccc(NS(=O)(=O)c2ccc(Cl)cc2)c1)c1ccc(F)cc1F` [I-343, N-(3-((4-chlorophenyl)sulfonamido)phenyl)-2,4-difluorobenzamide], for which the “% Inhibition of Apyrase” value is recorded as 59%.

For `CC1Cc2ccccc2N1S(=O)(=O)c1cccc(C(=O)Nc2cc(F)ccc2F)c1` (stereo not shown) [I-469, N-(2,5-difluorophenyl)-3-((2-methylindolin-1-yl)sulfonyl)benzamide], the “% Inhibition of Apyrase” value worked out at 59%.

In the case of `O=C(Nc1cccc(S(=O)(=O)Nc2ccc(Br)cc2)c1)c1ccc(Cl)nc1` [I-703, N-(3-(N-(4-bromophenyl)sulfamoyl)phenyl)-6-chloronicotinamide], the “% Inhibition of Apyrase” value came out at 71%.
